Data as given in patent US12077503B2, “Substituted cyclic amides and their use as herbicides” (FMC CORPORATION, priority 2015, dated 2024).

Legend:
Type in all cases: in vivo
[1] = system: ivy-leaved morning glory (Ipomoea hederacea); assay: Test G Post-Emergence Protocol; conditions: Ipomoea, post-emergence, 312 h, read-out: Morningglory, Ivy-leaved damage rating; for pest or weed control at 15.625 g/ha: 15.625 g ai/ha, evaluated after 13 days (100=total damage to plant; 0=no damage to plant); for pest or weed control at 62.5 g/ha: 62.5 g ai/ha; for pest or weed control at 62.5 g/ha / pest or weed control at 250 g/ha: evaluated after 13 days, 100=total damage to plant, 0=no damage to plant; for pest or weed control at 250 g/ha: 250 g ai/ha
In short: (§1)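 Eight days post-sowing, plants received a spray of test compound (acetone/water 50:50, 0.5% Tween 20) at 15.625, 62.5 or 250 g/ha. Glasshouse regime thereafter: 24/16 °C, 14 h light, 65% humidity. Assessment after 13 days on a 0–100 damage scale.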

[2] = system: giant foxtail (Setaria faberi); assay: Test G Post-Emergence Protocol; conditions: Setaria faberi, post-emergence, 312 h, read-out: Foxtail, Giant damage rating; for pest or weed control at 15.625 g/ha: 15.625 g ai/ha, evaluated after 13 days (100=total damage to plant; 0=no damage to plant); for pest or weed control at 62.5 g/ha: 62.5 g ai/ha; for pest or weed control at 62.5 g/ha / pest or weed control at 250 g/ha: evaluated after 13 days, 100=total damage to plant, 0=no damage to plant; for pest or weed control at 250 g/ha: 250 g ai/ha
In short: as §1

[3] = system: velvetleaf (Abutilon theophrasti); assay: Test G Post-Emergence Protocol; conditions: Abutilon theophrasti, post-emergence, 312 h, read-out: Velvetleaf damage rating; for pest or weed control at 15.625 g/ha: 15.625 g ai/ha, evaluated after 13 days (100=total damage to plant; 0=no damage to plant); for pest or weed control at 62.5 g/ha: 62.5 g ai/ha; for pest or weed control at 62.5 g/ha / pest or weed control at 250 g/ha: evaluated after 13 days, 100=total damage to plant, 0=no damage to plant; for pest or weed control at 250 g/ha: 250 g ai/ha
In short: as §1

[4] = system: barnyardgrass (Echinochloa crus-galli); assay: Test G Post-Emergence Protocol; conditions: Echinochloa crus-galli, post-emergence, 312 h, read-out: Barnyardgrass damage rating; for pest or weed control at 15.625 g/ha: 15.625 g ai/ha, evaluated after 13 days (100=total damage to plant; 0=no damage to plant); for pest or weed control at 62.5 g/ha: 62.5 g ai/ha; for pest or weed control at 62.5 g/ha / pest or weed control at 250 g/ha: evaluated after 13 days, 100=total damage to plant, 0=no damage to plant; for pest or weed control at 250 g/ha: 250 g ai/ha
In short: as §1

[5] = system: redroot pigweed (Amaranthus retroflexus); assay: Test G Post-Emergence Protocol; conditions: Amaranthus retroflexus, post-emergence, 312 h, read-out: Pigweed, Redroot damage rating; for pest or weed control at 15.625 g/ha: 15.625 g ai/ha, evaluated after 13 days (100=total damage to plant; 0=no damage to plant); for pest or weed control at 62.5 g/ha: 62.5 g ai/ha; for pest or weed control at 62.5 g/ha / pest or weed control at 250 g/ha: evaluated after 13 days, 100=total damage to plant, 0=no damage to plant; for pest or weed control at 250 g/ha: 250 g ai/ha
In short: as §1

corn (Zea mays) [6] = assay: Test G Post-Emergence Protocol; conditions: Zea mays, post-emergence, 312 h, read-out: Corn damage rating; for plant injury at 15.625 g/ha: 15.625 g ai/ha, evaluated after 13 days (100=total damage to plant; 0=no damage to plant); for plant injury at 62.5 g/ha: 62.5 g ai/ha; for plant injury at 62.5 g/ha / plant injury at 250 g/ha: evaluated after 13 days, 100=total damage to plant, 0=no damage to plant; for plant injury at 250 g/ha: 250 g ai/ha
In short: as §1

[7] = system: ivy-leaved morning glory (Ipomoea hederacea); assay: Test G Pre-Emergence Protocol; conditions: Ipomoea, pre-emergence, 312 h, evaluated after 13 days; for pest or weed control at 15.625 g/ha: 15.625 g ai/ha; for pest or weed control at 15.625 g/ha / pest or weed control at 250 g/ha: read-out: Morningglory, Ivy-leaved damage rating (100=total damage to plant; 0=no damage to plant); for pest or weed control at 62.5 g/ha: 62.5 g ai/ha, 100=total damage to plant, 0=no damage to plant, read-out: Morningglory, Ivy-leaved damage rating; for pest or weed control at 250 g/ha: 250 g ai/ha
In short: (§2)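 Under a 24/16° C day/night regime with 14 h light and 65% humidity, sown pots were sprayed after one day with compound (15.625, 62.5 or 250 g/ha; 50:50 acetone/water, 0.5% Tween 20). Damage was assessed visually 13 days later, 0 to 100.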

[8] = system: giant foxtail (Setaria faberi); assay: Test G Pre-Emergence Protocol; conditions: Setaria faberi, pre-emergence, 312 h, evaluated after 13 days; for pest or weed control at 15.625 g/ha: 15.625 g ai/ha; for pest or weed control at 15.625 g/ha / pest or weed control at 250 g/ha: read-out: Foxtail, Giant damage rating (100=total damage to plant; 0=no damage to plant); for pest or weed control at 62.5 g/ha: 62.5 g ai/ha, 100=total damage to plant, 0=no damage to plant, read-out: Foxtail, Giant damage rating; for pest or weed control at 250 g/ha: 250 g ai/ha
In short: as §2

[9] = system: velvetleaf (Abutilon theophrasti); assay: Test G Pre-Emergence Protocol; conditions: Abutilon theophrasti, pre-emergence, 312 h, evaluated after 13 days; for pest or weed control at 15.625 g/ha: 15.625 g ai/ha; for pest or weed control at 15.625 g/ha / pest or weed control at 250 g/ha: read-out: Velvetleaf damage rating (100=total damage to plant; 0=no damage to plant); for pest or weed control at 62.5 g/ha: 62.5 g ai/ha, 100=total damage to plant, 0=no damage to plant, read-out: Velvetleaf damage rating; for pest or weed control at 250 g/ha: 250 g ai/ha
In short: as §2

[10] = system: barnyardgrass (Echinochloa crus-galli); assay: Test G Pre-Emergence Protocol; conditions: Echinochloa crus-galli, pre-emergence, 312 h, evaluated after 13 days; for pest or weed control at 15.625 g/ha: 15.625 g ai/ha; for pest or weed control at 15.625 g/ha / pest or weed control at 250 g/ha: read-out: Barnyardgrass damage rating (100=total damage to plant; 0=no damage to plant); for pest or weed control at 62.5 g/ha: 62.5 g ai/ha, 100=total damage to plant, 0=no damage to plant, read-out: Barnyardgrass damage rating; for pest or weed control at 250 g/ha: 250 g ai/ha
In short: as §2

[11] = system: redroot pigweed (Amaranthus retroflexus); assay: Test G Pre-Emergence Protocol; conditions: Amaranthus retroflexus, pre-emergence, 312 h, evaluated after 13 days; for pest or weed control at 15.625 g/ha: 15.625 g ai/ha; for pest or weed control at 15.625 g/ha / pest or weed control at 250 g/ha: read-out: Pigweed, Redroot damage rating (100=total damage to plant; 0=no damage to plant); for pest or weed control at 62.5 g/ha: 62.5 g ai/ha, 100=total damage to plant, 0=no damage to plant, read-out: Pigweed, Redroot damage rating; for pest or weed control at 250 g/ha: 250 g ai/ha
In short: as §2

corn (Zea mays) [12] = assay: Test G Pre-Emergence Protocol; conditions: Zea mays, pre-emergence, 312 h, evaluated after 13 days; for plant injury at 15.625 g/ha: 15.625 g ai/ha; for plant injury at 15.625 g/ha / plant injury at 250 g/ha: read-out: Corn damage rating (100=total damage to plant; 0=no damage to plant); for plant injury at 62.5 g/ha: 62.5 g ai/ha, 100=total damage to plant, 0=no damage to plant, read-out: Corn damage rating; for plant injury at 250 g/ha: 250 g ai/ha
In short: as §2

SMILES | pest or weed control at 15.625 g/ha [1] | pest or weed control at 62.5 g/ha [1] | pest or weed control at 250 g/ha [1] | pest or weed control at 15.625 g/ha [2] | pest or weed control at 62.5 g/ha [2] | pest or weed control at 250 g/ha [2] | pest or weed control at 15.625 g/ha [3] | pest or weed control at 62.5 g/ha [3] | pest or weed control at 250 g/ha [3] | pest or weed control at 15.625 g/ha [4] | pest or weed control at 62.5 g/ha [4] | pest or weed control at 250 g/ha [4] | pest or weed control at 15.625 g/ha [5] | pest or weed control at 62.5 g/ha [5] | pest or weed control at 250 g/ha [5] | plant injury at 15.625 g/ha (corn (Zea mays) [6]) | plant injury at 62.5 g/ha (corn (Zea mays) [6]) | plant injury at 250 g/ha (corn (Zea mays) [6]) | pest or weed control at 15.625 g/ha [7] | pest or weed control at 62.5 g/ha [7] | also measured
CN1C[C@@H](c2cccc(C(F)(F)F)c2)[C@H](C(=O)Nc2cccnc2F)C1=O [Compound 1823] | 0% | 0% | 0% | 0% | 0% | 0% | 0% | 0% | 0% | 0% | 0% | 0% | 0% | 0% | 0% | 0% | 0% | 0% | 0% | 0% | pest or weed control at 250 g/ha [7]: 0%; pest or weed control at 15.625 g/ha [8]: 0%; pest or weed control at 62.5 g/ha [8]: 0%; pest or weed control at 250 g/ha [8]: 0%; pest or weed control at 15.625 g/ha [9]: 0%; pest or weed control at 62.5 g/ha [9]: 0%; pest or weed control at 250 g/ha [9]: 0%; pest or weed control at 15.625 g/ha [10]: 0%; pest or weed control at 62.5 g/ha [10]: 0%; pest or weed control at 250 g/ha [10]: 0%; pest or weed control at 15.625 g/ha [11]: 0%; pest or weed control at 62.5 g/ha [11]: 0%; pest or weed control at 250 g/ha [11]: 0%; plant injury at 15.625 g/ha (corn (Zea mays) [12]): 0%; plant injury at 62.5 g/ha (corn (Zea mays) [12]): 0%; plant injury at 250 g/ha (corn (Zea mays) [12]): 0%
CN1C[C@H](c2ccc(C(F)(F)F)c(C(F)(F)F)c2)[C@@H](C(=O)Nc2ccccc2S(C)(=O)=O)C1=O (racemic) [Compound 1799] | 10% | 60% | 30% | 20% | 70% | 70% | 0% | 20% | 10% | 0% | 60% | 70% | 0% | 60% | 70% | 10% | 60% | 70% | 0% | 0% | pest or weed control at 250 g/ha [7]: 0%; pest or weed control at 15.625 g/ha [8]: 50%; pest or weed control at 62.5 g/ha [8]: 90%; pest or weed control at 250 g/ha [8]: 90%; pest or weed control at 15.625 g/ha [9]: 0%; pest or weed control at 62.5 g/ha [9]: 0%; pest or weed control at 250 g/ha [9]: 20%; pest or weed control at 15.625 g/ha [10]: 10%; pest or weed control at 62.5 g/ha [10]: 70%; pest or weed control at 250 g/ha [10]: 70%; pest or weed control at 15.625 g/ha [11]: 0%; pest or weed control at 62.5 g/ha [11]: 10%; pest or weed control at 250 g/ha [11]: 40%; plant injury at 15.625 g/ha (corn (Zea mays) [12]): 0%; plant injury at 62.5 g/ha (corn (Zea mays) [12]): 70%; plant injury at 250 g/ha (corn (Zea mays) [12]): 80%
